# Assay results from publication PMC4864809, “C‐type natriuretic peptide in combination with sildenafil attenuates proliferation of rhabdomyosarcoma cells” (Cancer Medicine, 2016).
# Legend:
# [1] = system: RD‐GC‐B and RMS‐YM‐GC‐B cells; assay: Morphological appearance of cell death during proliferation assay; format: cell-based; conditions: during 96 h; CNP 1 μmol/L and/or sildenafil 100 μmol/L
# Procedure: (§1) A total of 2000 cells per well were seeded into 96‐well plates in 100 μL of culture medium. After 24 h, the wells were washed twice with 1% serum‐free RPMI‐1640 medium and subsequently incubated in this medium. Twenty‐four hours after serum deprivation, CNP (1 μmol/L) and/or sildenafil (100 μmol/L) were added, and the cells were incubated for 0–4 days. Cell proliferation was determined in sextuplicate using the Cell Counting Kit‐8 (Nacalai Tesque, Kyoto, Japan).
# RD‐GC‐B xenograft tumors = assay: Xenograft efficacy study; format: in vivo; conditions: for tumor growth (tumor volume): CNP 2.5 μg/kg/min continuous s.c. infusion, versus vehicle; for tumor growth (tumor volume) / Ki67 labeling index: n = 7–8; for Ki67 labeling index: RD‐GC‐B tumors, immunohistochemistry, relative to the control group; for Phosphorylated ERK levels in xenograft tumors: pERK1/2 versus total ERK1/2, western blot densitometry, after 4 weeks of treatment
# Procedure: All animal experiments were performed according to a protocol approved by the Animal Care Ethics Committee of the National Cerebral and Cardiovascular Center Research Institute. Five‐week‐old male BALB/c nu/nu mice and 5‐week‐old male nonobese diabetic/severe combined immunodeficiency (NOD)⁄severe combined immunodeficiency (SCID) mice were purchased from Japan SLC (Shizuoka, Japan) and Oriental Yeast (Tokyo, Japan), respectively.
# RD‐GC‐B cells (1–3 × 10^7 cells) were subcutaneously implanted into the chest and abdominal area of NOD/SCID mice. When the subcutaneous tumors reached a diameter of 10–12 mm, they were resected, divided into 5‐mm pieces, and reimplanted into the chest area of BALB/c nu/nu mice. Ten days after tumor implantation, administration of CNP and/or sildenafil was initiated. CNP was continuously infused using an osmotic mini‐pump (Alzet Model 1003D; Duret Corporation, Cupertino, CA), as previously reported 14. CNP was subcutaneously administered at a rate of 2.5 μg/kg/min, and treatment continued for 4 weeks. Sildenafil was intraperitoneally administered at a dose of 20 mg/kg every other day for 4 weeks. Tumor volume was calculated by the formula: V (mm^3) = 0.5 × a × b ^2, where a is the longest tumor axis and b is the shortest tumor axis.
# Immunohitochemical staining was performed by the avidin‐biotin‐peroxidase complex (ABC) method using the Vectastain Elite ABC kit (Vector, Burlingame, CA) as described previously 14. Because the anti‐Ki67 antibody was mouse monoclonal antibody, a mouse on mouse immunodetection kit (Vector) was used. Images of immunohistochemical staining were captured using a FSX100 Bio Imaging Navigator microscope (Olympus, Tokyo, Japan). Ki67‐positive and ‐negative cells were counted using the CellSens Dimension software (Olympus). Ten randomly selected fields per section and 7–8 sections per animal were analyzed at 20 × magnification.
# [2] = system: Raf/MEK/ERK signaling in RD‐GC‐B cells; assay: Western blot of Raf/MEK/ERK phosphorylation, RD‐GC‐B; format: cell-based, human; conditions: for ERK phosphorylation: CNP 1 μmol/L and/or sildenafil 100 μmol/L, 1–8 h
# Procedure: (§2) A total of 1 × 10^5 cells per well were plated in 12‐well plastic plates in complete media. Cells were serum‐starved with RPMI‐1640 medium containing 1% serum for 24 h, and then treated with CNP (1 μmol/L) and/or sildenafil (100 μmol/L) for indicated times. Cells were lysed with NP‐40 buffer (0.5% NP‐40, 10 mmol/L Tris [pH 7.6], 0.15 mol/L NaCl, 1.5 mmol/L […]) containing phosphatase inhibitor cocktail (Nacalai Tesque). Samples were electrophoresed on 4–15% gradient gels (Bio‐Rad, Hercules, CA, USA) and transferred onto polyvinylidene difluoride transfer membranes (Millipore Bedford, MA). Antibody binding was detected with an enhanced chemiluminescence detection system (Amersham Pharmacia Biotech, Piscataway, NJ).
# [3] = system: Notch, Wnt, Hedgehog, and PI3K/AKT/mTOR signaling pathways in RD‐GC‐B cells; assay: Western blot of HES‐1, β‐catenin, GLI1 and phosphorylated Akt, RD‐GC‐B; format: cell-based, human; conditions: CNP 1 µM, sildenafil 100 µM, 4 hours
# Procedure: as §2
# [4] = system: Raf/MEK/ERK signaling in RMS‐YM‐GC‐B cells; assay: Western blot of Raf/MEK/ERK phosphorylation, RMS‐YM‐GC‐B; format: cell-based, human; conditions: for ERK phosphorylation: CNP 1 μmol/L and/or sildenafil 100 μmol/L, 1–8 h
# Procedure: as §2
# RD‐GC‐B cells [5] = assay: Caspase‐3 activity (Nuc‐View 488 Caspase‐3 assay kit); format: cell-based, human; conditions: same conditions as proliferation assay, Nuc‐View 488 substrate, data not shown
# [6] = system: ERK phosphorylation in parental RD cells; assay: Western blot of ERK phosphorylation, parental RD; format: cell-based, human; conditions: data not shown
# Procedure: as §2
# parental RMS‐YM cells = assay: Cell proliferation assay, parental RMS‐YM; format: cell-based, human; conditions: data not shown
# Procedure: as §1
# [7] = molecular target: T1, GC‐B in RMS‐YM‐GC‐B cells (Homo sapiens, UniProt P20594); assay: Measurement of intracellular cGMP (RIA) in RMS‐YM‐GC‐B cells; format: cell-based; conditions: RMS‐YM‐GC‐B cells stably expressing GC‐B
# T1 construct: host or cells: RD and RMS‐YM cells, retrovirally infected and puromycin-selected (RD‐GC‐B, RMS‐YM‐GC‐B)
# T1 sequence (P20594 23-1047): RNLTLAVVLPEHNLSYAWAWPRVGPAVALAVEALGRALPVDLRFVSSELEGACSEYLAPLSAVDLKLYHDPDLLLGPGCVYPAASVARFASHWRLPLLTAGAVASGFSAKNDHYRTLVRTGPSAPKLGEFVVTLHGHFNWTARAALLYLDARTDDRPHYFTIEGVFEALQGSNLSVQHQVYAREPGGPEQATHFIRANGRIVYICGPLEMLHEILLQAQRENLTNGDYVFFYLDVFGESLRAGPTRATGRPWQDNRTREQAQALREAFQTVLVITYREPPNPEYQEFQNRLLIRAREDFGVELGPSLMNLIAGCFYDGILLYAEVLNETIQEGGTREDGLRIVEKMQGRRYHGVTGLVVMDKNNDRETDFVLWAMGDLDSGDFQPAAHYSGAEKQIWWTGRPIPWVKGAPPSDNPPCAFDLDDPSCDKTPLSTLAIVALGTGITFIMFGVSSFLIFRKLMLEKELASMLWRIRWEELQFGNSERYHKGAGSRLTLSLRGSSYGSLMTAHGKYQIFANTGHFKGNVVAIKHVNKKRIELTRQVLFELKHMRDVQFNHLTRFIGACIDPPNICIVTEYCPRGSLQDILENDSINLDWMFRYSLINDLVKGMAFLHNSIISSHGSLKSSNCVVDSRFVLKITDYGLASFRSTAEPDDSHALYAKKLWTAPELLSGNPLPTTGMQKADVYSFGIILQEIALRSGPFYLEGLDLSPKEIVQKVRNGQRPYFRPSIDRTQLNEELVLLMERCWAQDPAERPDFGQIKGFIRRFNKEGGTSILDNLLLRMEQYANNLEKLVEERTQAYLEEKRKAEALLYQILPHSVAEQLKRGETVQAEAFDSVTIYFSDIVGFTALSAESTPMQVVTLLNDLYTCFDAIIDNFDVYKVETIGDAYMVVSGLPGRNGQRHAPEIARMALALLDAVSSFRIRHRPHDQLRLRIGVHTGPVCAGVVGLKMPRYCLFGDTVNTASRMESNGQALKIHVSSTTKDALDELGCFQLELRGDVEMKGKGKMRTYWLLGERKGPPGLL
# From the text: (§3) The plasmid used for preparing retrovirus vector expressing GC‐B‐FLAG (pCX4 puro GC‐B‐FLAG) was constructed by introducing the GC‐B‐FLAG fragment, amplified by polymerase chain reaction (PCR) from human GC‐B obtained from Promega (Madison, WI), into the NotI site of pCX4 puro. The vector was transfected into BOSC cells with pE‐eco and pGp (TAKARA BIO, Kyoto, Japan) using FuGENE6 (Promega) to produce ecotropic retrovirus. After transfection, culture supernatants were collected, and filtered. Retroviral infection of RD and RMS‐YM cells was performed using the retrovirus and Ecotropic Receptor Booster (TAKARA BIO). After infection, cells were selected with puromycin. These resultant cell lines are referred to as RD‐GC‐B or RMS‐YM‐GC‐B.
# (§4) Rhabdomyosarcoma cells were seeded onto 24‐well plastic plates and incubated for 24 h. After the cells were confluent as a monolayer, they were washed twice with 500 μL of serum‐free RPMI‐1640 and incubated in serum‐free medium for 24 h. CNP was dissolved in 5 mmol/L isobutylmethylxanthine (IBMX) at final concentrations of 1 nmol/L–10 μmol/L. Various concentrations of CNP were added to the medium, and the monolayer was incubated at 37°C for an additional 15 min. […] The cGMP content of the dried extract was quantitated using a radioimmunoassay (RIA) kit (Yamasa Shoyu, Tokyo, Japan).
# [8] = system: ERK phosphorylation in parental RMS‐YM cells; assay: Western blot of ERK phosphorylation, parental RMS‐YM; format: cell-based, human; conditions: data not shown
# Procedure: as §2
# RMS‐YM‐GC‐B cells = assay: Cell proliferation assay (Cell Counting Kit‐8 / WST‐8), RMS‐YM‐GC‐B; format: cell-based, human; conditions: CNP 1 μmol/L, 96 h, 1% serum, versus solvent control, n = 6, three independent experiments
# Procedure: as §1
# [9] = molecular target: T2, GC‐B receptors in RMS‐YM cells (Homo sapiens, UniProt P20594); assay: Measurement of intracellular cGMP (RIA) in RMS‐YM cells; format: cell-based; conditions: 15 min
# T2 construct: host or cells: RMS‐YM cells
# T2 sequence (P20594 23-1047): T1 sequence (P20594 23-1047)
# Procedure: (§5) Rhabdomyosarcoma cells were seeded onto 24‐well plastic plates and incubated for 24 h. After the cells were confluent as a monolayer, they were washed twice with 500 μL of serum‐free RPMI‐1640 and incubated in serum‐free medium for 24 h. CNP was dissolved in 5 mmol/L isobutylmethylxanthine (IBMX) at final concentrations of 1 nmol/L–10 μmol/L. Various concentrations of CNP were added to the medium, and the monolayer was incubated at 37°C for an additional 15 min. The medium was rapidly removed by aspiration, and 400 μL of 70% ethanol containing 100 μmol/L hydrochloric acid (HCl) was added to lyse the cells. The cGMP content of the dried extract was quantitated using a radioimmunoassay (RIA) kit (Yamasa Shoyu, Tokyo, Japan).
# [10] = subcutaneous infusion of CNP at 2.5 μg/kg/min; cited from earlier work
# From the text: There are some limitations in this study. First, RMS cells stably expressing GC‐B expressed higher levels of GC‐B than clinical samples. However, given that the recurrent sample expressed a very high level of GC‐B, the findings made using RMS cells stably expressing GC‐B are still quite valuable.
# [11] = molecular target: T3, GC‐B receptors in RD cells (Homo sapiens, UniProt P20594); assay: Measurement of intracellular cGMP (RIA) in RD cells; format: cell-based; conditions: 15 min
# T3 construct: host or cells: RD cells
# T3 sequence (P20594 23-1047): T1 sequence (P20594 23-1047)
# Procedure: as §5
# parental RD cells = assay: Cell proliferation assay, parental RD; format: cell-based, human; conditions: data not shown
# Procedure: as §1
# GC‐B in RD‐GC‐B cells = molecular target: T4, GC‐B in RD‐GC‐B cells (Homo sapiens, UniProt P20594); assay: Measurement of intracellular cGMP (RIA) in RD‐GC‐B cells; format: cell-based; conditions: RD‐GC‐B cells stably expressing GC‐B
# T4 construct: host or cells: RD and RMS‐YM cells, retrovirally infected and puromycin-selected (RD‐GC‐B, RMS‐YM‐GC‐B)
# T4 sequence (P20594 23-1047): T1 sequence (P20594 23-1047)
# From the text: as §3, §4
# RD‐GC‐B cells [12] = assay: Cell proliferation assay (Cell Counting Kit‐8 / WST‐8), RD‐GC‐B; format: cell-based, human; conditions: CNP 1 μmol/L, 96 h, 1% serum, versus solvent control, n = 6, three independent experiments
# Procedure: as §1
# [13] = Plasma CNP measurements (CNP RIA kit); format: in vivo, C57BL/6 mice; conditions: continuous s.c. infusion 2.5 μg/kg/min by osmotic mini‐pump, blood 3 days after implantation, n = 5 versus untreated n = 10
# Procedure: Osmotic mini‐pumps containing CNP were implanted subcutaneously in 6‐week‐old male C57BL/6 mice purchased from Japan SLC. CNP was administered at a rate of 2.5 μg/kg/min, and blood samples from these treated mice and untreated mice were withdrawn 3 days after the implantation. CNP content was determined using a CNP RIA kit (Phoenix Pharmaceuticals, Belmont, CA).
# [14] = sildenafil 20 mg/kg i.p. every other day, 4 weeks
# [15] = CNP 1 μmol/L, sildenafil 100 μmol/L
# [16] = CNP 1 nmol/L–10 μmol/L with IBMX, 37°C, serum-free, RIA, average of four wells
compound,measurement,setting,value
CCCc1nn(C)c2c(=O)[nH]c(-c3cc(S(=O)(=O)N4CCN(C)CC4)ccc3OCC)nc12 [sildenafil],morphological appearance of cell death,[1],not observed
same,tumor growth (tumor volume),RD‐GC‐B xenograft tumors; [14],did not suppress tumor growth significantly
same,Ki67 labeling index,RD‐GC‐B xenograft tumors,significantly reduced
same,Phosphorylated ERK levels in xenograft tumors,RD‐GC‐B xenograft tumors,~30 % of control levels
same,ERK phosphorylation,[2],did not cause dephosphorylate ERK
same,"Expression of HES‐1, β‐catenin, and GLI1, and phosphorylation of Akt",[3],not changed
same,ERK phosphorylation,[4],did not cause dephosphorylate ERK
same,caspase‐3 activity (apoptosis),RD‐GC‐B cells [5],not significantly induced
C‐type natriuretic peptide [CNP],reduction in ERK phosphorylation,[6],no effect
same,effect on proliferation,parental RMS‐YM cells,no effect
same,CNP‐dependent cGMP production,[7],robust increases
same,morphological appearance of cell death,[1],not observed
same,reduction in ERK phosphorylation,[8],no effect
same,body weight of mice during treatment (tolerability),"RD‐GC‐B xenograft tumors; 4 weeks, CNP 2.5 μg/kg/min s.c., sildenafil 20 mg/kg i.p. every other day, relative to control group",did not induce weight loss
same,tumor growth (tumor volume),RD‐GC‐B xenograft tumors; [14],did not suppress tumor growth significantly
same,Ki67 labeling index,RD‐GC‐B xenograft tumors,significantly reduced
same,Phosphorylated ERK levels in xenograft tumors,RD‐GC‐B xenograft tumors,~30 % of control levels
same,ERK phosphorylation,[2],dephosphorylation of ERK
same,phosphorylation of Raf‐1 and MEK,[2]; [15],Dephosphorylation
same,cell proliferation,RMS‐YM‐GC‐B cells,significantly attenuated
same,CNP concentration at which cGMP levels almost reached a plateau,[9]; with IBMX,~1 µmol/L
same,intracellular cGMP levels,[9]; [16],increased the intracellular cGMP levels in a dose‐dependent manner
same,"Expression of HES‐1, β‐catenin, and GLI1, and phosphorylation of Akt",[3],not changed
same,ERK phosphorylation,[4],dephosphorylation of ERK
same,phosphorylation of Raf‐1 and MEK,[4]; [15],Dephosphorylation
same,hypotension,[10],does not cause hypotension
same,CNP concentration at which cGMP levels almost reached a plateau,[11]; with IBMX,~1 µmol/L
same,intracellular cGMP levels,[11]; [16],increased the intracellular cGMP levels in a dose‐dependent manner
same,effect on proliferation,parental RD cells,no effect
same,CNP‐dependent cGMP production,GC‐B in RD‐GC‐B cells,robust increases
same,caspase‐3 activity (apoptosis),RD‐GC‐B cells [5],not significantly induced
same,cell proliferation,RD‐GC‐B cells [12],significantly attenuated
same,plasma concentration of CNP,[13],significantly increased
